Assay results from ChEMBL document CHEMBL5380800, “Discovery of Small-Molecule Autophagy Inhibitors by Disrupting the Protein-Protein Interactions Involving Autophagy-Related 5” (J Med Chem, 2023).

Legend:
[1] = Inhibition of ATG5-ATG16L1 (unknown origin) protein protein interaction expressed in Escherichia coli BL21 (DE3) by HTRF method; design: species or system Homo sapiens
[2] = Inhibition of ATG5-TECAIR (unknown origin) protein protein interaction expressed in Escherichia coli BL21 (DE3) by HTRF method; design: species or system Homo sapiens
COS-7 = experiment: Inhibition of autophagy in African green monkey COS-7 cells at 20 uM by flow cytometry analysis relative to control; format: functional; settings: Chlorocebus aethiops

| Structure (SMILES) | IC50 ([1]; read-out: IC50) | IC50 ([2]; read-out: IC50) | inhibition at 20 µM (COS-7) | IC50 [1] | IC50 [2] |
| --- | --- | --- | --- | --- | --- |
| CC1=NN(c2ccc(C(=O)O)cc2)C(=O)C1Cc1ccc(-c2ccc([N+](=O)[O-])cc2)s1 (configuration not stated) | > 33 µM | > 33 µM | – | – | – |
| CC1=NN(c2ccc(C(=O)O)cc2)C(=O)C1Cc1ccc(-c2cc(C)c(C)cc2[N+](=O)[O-])o1 (configuration not stated) | > 33 µM | > 33 µM | – | – | – |
| O=C1/C(=C/c2ccc(-c3ccc([N+](=O)[O-])cc3)o2)C=C(c2ccccc2)N1Cc1ccccc1Br | – | – | 82.5% | – | – |
| O=C(O)c1ccc(N2C(=O)/C(=C/c3ccc(-c4cncnc4)s3)C=C2c2ccccc2)cc1 | > 11 µM | > 11 µM | 95.6% | – | – |
| NC(=O)c1cccc(-c2ccc(/C=C3\C=C(c4ccccc4)N(Cc4ccc(C(=O)O)cc4)C3=O)o2)c1 | – | > 33 µM | 8.3% | Not Active | – |
| O=C(O)CCN1C(=O)/C(=C\c2ccc(-c3ccc([N+](=O)[O-])cc3)o2)SC1=S | 27 µM | 19 µM | – | – | – |
| CC1=NN(c2ccc(C(=O)O)cc2)C(=O)/C1=C\c1ccc(-c2ccccc2C(F)F)o1 | 21.4 µM | > 33 µM | – | – | – |
| O=C(O)CCN1C(=O)/C(=C/c2ccc(-c3ccc([N+](=O)[O-])cc3Cl)o2)SC1=S | 16 µM | 23 µM | – | – | – |
| O=C(O)CCCCN1C(=O)/C(=C/c2ccc(-c3ccc([N+](=O)[O-])cc3)o2)C=C1c1ccccc1 | > 33 µM | 19.2 µM | 14.6% | – | – |
| CC1=NN(c2ccc(C(=O)O)cc2)C(=O)/C1=C\c1ccc(-c2cc(C)c(C)cc2[N+](=O)[O-])s1 | 11.6 µM | 11.9 µM | – | – | – |
| O=C(O)c1ccc(N2C(=O)/C(=C/c3ccc(-c4cccnc4)s3)C=C2c2ccccc2)cc1 | – | > 33 µM | 97.3% | Not Active | – |
| O=C(O)CN1C(=O)/C(=C/c2ccc(-c3ccc([N+](=O)[O-])cc3)o2)C=C1c1ccccc1 | – | 31.2 µM | 3.29% | Not Active | – |
| COC(=O)c1cccc(CN2C(=O)/C(=C/c3ccc(-c4ccc([N+](=O)[O-])cc4)o3)C=C2c2ccccc2)c1 | – | – | 78.4% | – | – |
| O=C(O)CCN1C(=O)/C(=C/c2cc([N+](=O)[O-])ccc2OCc2ccccc2Cl)SC1=S | 16 µM | 26 µM | – | – | – |
| O=C1/C(=C/c2ccc(-c3ccc([N+](=O)[O-])cc3)o2)C=C(c2ccccc2)N1Cc1ccccc1 | – | – | 78.7% | Not Active | Not Active |
| COC(=O)CCN1C(=O)/C(=C/c2ccc(-c3ccc([N+](=O)[O-])cc3)o2)C=C1c1ccccc1 | – | – | 77.1% | Not Active | Not Active |
| CC1=NN(c2ccc(C(=O)O)cc2)C(=O)/C1=C\c1ccc(-c2cccc([N+](=O)[O-])c2)s1 | 11.2 µM | 23 µM | – | – | – |
| O=C(O)c1cccc(CN2C(=O)/C(=C/c3ccc(-c4ccc([N+](=O)[O-])cc4)o3)C=C2c2ccccc2)c1 | > 33 µM | 21.3 µM | 8.1% | – | – |
| COC(=O)CCCCN1C(=O)/C(=C/c2ccc(-c3ccc([N+](=O)[O-])cc3)o2)C=C1c1ccccc1 | – | – | 16.6% | Not Active | Not Active |
| CC(=O)Nc1ccc(-c2ccc(/C=C3\C=C(c4ccccc4)N(Cc4ccc(C(=O)O)cc4)C3=O)o2)cc1 | 12.8 µM | 12 µM | 5.02% | – | – |
| COc1ccc(-c2ccc(/C=C3\C=C(c4ccccc4)N(c4ccc(C(=O)O)cc4)C3=O)o2)cc1 | 25 µM | 16 µM | 96.6% | – | – |
| Cc1cc(-c2ccc(/C=C3\C(=O)N(c4ccc(C(=O)O)cc4)N=C3C3CC3)s2)c([N+](=O)[O-])cc1C | 22.3 µM | > 33 µM | – | – | – |
| CCN(CC)CCCC(C)Nc1ccnc2cc(Cl)ccc12 (configuration not stated) [CHLOROQUINE] | 37 µM | 28 µM | – | – | – |
| Cc1cc(-c2ccc(/C=C3\C(=O)N(c4ccc(C(=O)O)cc4)N=C3C3CC3)s2)c(C(F)(F)F)cc1C | > 33 µM | > 33 µM | – | – | – |
| CC(=O)Nc1cccc(-c2ccc(/C=C3\C=C(c4ccccc4)N(Cc4ccc(C(=O)O)cc4)C3=O)o2)c1 | – | – | 20% | Not Active | Not Active |
| O=C(O)c1ccc(CN2C(=O)/C(=C/c3ccc(-c4ccc([N+](=O)[O-])cc4)o3)C=C2c2ccccc2)cc1 | 2.29 µM | 3.68 µM | 5.88% | – | – |
| CC1=NN(c2ccc(C(=O)O)cc2)C(=O)/C1=C\c1ccc(-c2cc(C)c(C)cc2C(F)(F)F)o1 | > 33 µM | 31.1 µM | – | – | – |
| CCCCN1C(=O)/C(=C/c2ccc(-c3ccc([N+](=O)[O-])cc3)o2)C=C1c1ccccc1 | – | – | 77.8% | – | – |
| CCOC(=O)CN1C(=O)/C(=C/c2ccc(-c3ccc([N+](=O)[O-])cc3)o2)C=C1c1ccccc1 | – | – | 79% | – | – |
